# Measurements taken from ChEMBL document CHEMBL3992481 (2016).
# Active and inactive are the calls of the source. The rule behind the calls is not given here.
# How the values were obtained:
# [1] = biological target: T1, Carboxylic ester hydrolase (Mycobacterium tuberculosis (strain ATCC 25618 / H37Rv)) (UniProt O53488); assay: Competitive binding affinity to Mycobacterium tuberculosis H37Rv ATCC 25618 lipase-T at 60 uM preincubated for 60 mins followed by La-1 probe addition measured after 30 mins by ABPP method
# T1 sequence (whole entry): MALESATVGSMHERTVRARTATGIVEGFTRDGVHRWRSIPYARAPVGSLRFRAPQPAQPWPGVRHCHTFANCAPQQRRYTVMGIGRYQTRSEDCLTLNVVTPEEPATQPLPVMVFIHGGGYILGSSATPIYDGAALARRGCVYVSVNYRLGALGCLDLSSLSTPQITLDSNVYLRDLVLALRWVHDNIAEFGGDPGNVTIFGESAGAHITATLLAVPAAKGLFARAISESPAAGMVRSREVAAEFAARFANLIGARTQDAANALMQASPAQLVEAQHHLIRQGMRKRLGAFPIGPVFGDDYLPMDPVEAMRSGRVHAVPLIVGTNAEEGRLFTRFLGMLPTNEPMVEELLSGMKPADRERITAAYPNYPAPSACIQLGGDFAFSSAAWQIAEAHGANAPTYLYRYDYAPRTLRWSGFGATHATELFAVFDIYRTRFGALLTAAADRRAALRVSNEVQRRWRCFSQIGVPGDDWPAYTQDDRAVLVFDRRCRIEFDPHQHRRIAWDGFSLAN
# [2] = test system: Mycobacterium tuberculosis H37Rv; assay: Inhibition of lipase in Mycobacterium tuberculosis H37Rv assessed as cell growth inhibition after 7 days by resazurin assay
# [3] = biological target: T2, Carboxylic ester hydrolase LipN (Mycobacterium tuberculosis (strain ATCC 25618 / H37Rv)) (UniProt P95125); assay: Competitive binding affinity to Mycobacterium tuberculosis H37Rv ATCC 25618 lipaseN at 60 uM preincubated for 60 mins followed by La-1 probe addition measured after 30 mins by ABPP method
# T2 sequence (whole entry): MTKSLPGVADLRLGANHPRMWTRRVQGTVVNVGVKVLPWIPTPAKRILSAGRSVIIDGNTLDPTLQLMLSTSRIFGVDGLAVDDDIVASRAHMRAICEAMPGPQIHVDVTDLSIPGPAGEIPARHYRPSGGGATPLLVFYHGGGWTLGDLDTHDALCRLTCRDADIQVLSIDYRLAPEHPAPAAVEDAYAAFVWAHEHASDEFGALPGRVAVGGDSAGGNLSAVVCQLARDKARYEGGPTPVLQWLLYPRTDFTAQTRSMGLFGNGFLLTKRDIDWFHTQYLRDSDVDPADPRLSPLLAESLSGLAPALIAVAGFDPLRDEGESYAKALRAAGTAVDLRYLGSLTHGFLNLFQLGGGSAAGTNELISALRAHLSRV
# [4] = biological target: T3, Probable carboxylic ester hydrolase LipM (Mycobacterium tuberculosis (strain ATCC 25618 / H37Rv)) (UniProt Q50681); assay: Competitive binding affinity to Mycobacterium tuberculosis H37Rv ATCC 25618 lipase-M at 60 uM preincubated for 60 mins followed by La-1 probe addition measured after 30 mins by ABPP method
# T3 sequence (whole entry): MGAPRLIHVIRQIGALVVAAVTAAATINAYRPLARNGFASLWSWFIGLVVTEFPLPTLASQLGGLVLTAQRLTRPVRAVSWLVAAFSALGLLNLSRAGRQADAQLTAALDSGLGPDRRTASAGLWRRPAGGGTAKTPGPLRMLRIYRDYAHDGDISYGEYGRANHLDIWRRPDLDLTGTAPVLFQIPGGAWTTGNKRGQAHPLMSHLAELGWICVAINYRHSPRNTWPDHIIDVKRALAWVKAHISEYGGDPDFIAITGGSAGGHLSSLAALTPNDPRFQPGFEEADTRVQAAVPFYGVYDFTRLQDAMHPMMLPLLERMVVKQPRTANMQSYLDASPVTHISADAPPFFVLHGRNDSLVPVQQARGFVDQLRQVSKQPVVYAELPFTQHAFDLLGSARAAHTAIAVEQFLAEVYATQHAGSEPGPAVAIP
# [5] = biological target: T4, Putative acetyl-hydrolase LipR (Mycobacterium tuberculosis (strain ATCC 25618 / H37Rv)) (UniProt P9WK85); assay: Competitive binding affinity to Mycobacterium tuberculosis H37Rv ATCC 25618 lipaseR at 60 uM preincubated for 60 mins followed by La-1 probe addition measured after 30 mins by ABPP method
# T4 sequence (whole entry): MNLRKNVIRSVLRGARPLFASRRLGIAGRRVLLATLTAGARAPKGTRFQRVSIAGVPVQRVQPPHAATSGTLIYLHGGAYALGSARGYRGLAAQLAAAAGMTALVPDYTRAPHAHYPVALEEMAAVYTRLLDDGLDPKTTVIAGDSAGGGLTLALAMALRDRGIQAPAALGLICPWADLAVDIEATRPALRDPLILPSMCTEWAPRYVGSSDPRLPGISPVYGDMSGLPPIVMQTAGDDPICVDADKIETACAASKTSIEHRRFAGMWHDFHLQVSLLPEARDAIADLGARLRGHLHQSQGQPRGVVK
# [6] = biological target: T5, Probable esterase LipO (Mycobacterium tuberculosis (strain ATCC 25618 / H37Rv)) (UniProt O06832); assay: Competitive binding affinity to Mycobacterium tuberculosis H37Rv ATCC 25618 lipase-O at 60 uM preincubated for 60 mins followed by La-1 probe addition measured after 30 mins by ABPP method
# T5 sequence (whole entry): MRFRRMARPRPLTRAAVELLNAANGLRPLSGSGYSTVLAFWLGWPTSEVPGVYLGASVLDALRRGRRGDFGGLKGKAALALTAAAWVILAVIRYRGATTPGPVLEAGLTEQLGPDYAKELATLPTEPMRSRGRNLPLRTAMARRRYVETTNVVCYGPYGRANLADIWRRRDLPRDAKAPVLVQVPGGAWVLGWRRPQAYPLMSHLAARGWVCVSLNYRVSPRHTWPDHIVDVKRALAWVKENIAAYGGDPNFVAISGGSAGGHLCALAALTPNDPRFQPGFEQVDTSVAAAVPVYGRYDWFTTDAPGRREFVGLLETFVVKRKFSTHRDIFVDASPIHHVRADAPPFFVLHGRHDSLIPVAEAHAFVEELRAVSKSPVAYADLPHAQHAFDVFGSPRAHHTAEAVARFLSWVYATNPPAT
# [7] = test system: Mycobacterium tuberculosis H37Rv; assay: Ratio of MIC for inhibition of lipase in Mycobacterium tuberculosis H37Rv assessed as cell growth inhibition in absence of vancomycin to MIC for inhibition of lipase in Mycobacterium tuberculosis H37Rv assessed as cell growth inhibition in presence of vancomycin
# [8] = biological target: T6, Esterase LipI (Mycobacterium tuberculosis (strain ATCC 25618 / H37Rv)) (UniProt P71668); assay: Competitive binding affinity to Mycobacterium tuberculosis H37Rv ATCC 25618 lipase-I at 60 uM preincubated for 60 mins followed by La-1 probe addition measured after 30 mins by ABPP method
# T6 sequence (whole entry): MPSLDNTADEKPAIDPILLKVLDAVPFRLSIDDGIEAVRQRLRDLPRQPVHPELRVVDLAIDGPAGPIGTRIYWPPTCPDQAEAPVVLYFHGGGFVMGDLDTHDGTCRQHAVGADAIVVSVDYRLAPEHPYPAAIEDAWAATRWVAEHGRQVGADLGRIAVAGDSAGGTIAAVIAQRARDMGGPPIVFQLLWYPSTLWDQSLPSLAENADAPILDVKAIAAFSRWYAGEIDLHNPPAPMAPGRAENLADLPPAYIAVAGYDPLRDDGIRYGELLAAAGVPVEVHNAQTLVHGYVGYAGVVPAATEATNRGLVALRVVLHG
# [9] = test system: Mycobacterium tuberculosis H37Rv; assay: Inhibition of lipase in Mycobacterium tuberculosis H37Rv infected in human monocyte derived macrophages assessed as inhibition of bacterial growth treated for 7 days starting from 4 day post infection relative to control
# [10] = biological target: T7, Probable lipase/esterase LipG (Mycobacterium tuberculosis (strain ATCC 25618 / H37Rv)) (UniProt P96935); assay: Competitive binding affinity to Mycobacterium tuberculosis H37Rv ATCC 25618 lipase-G at 60 uM preincubated for 60 mins followed by La-1 probe addition measured after 30 mins by ABPP method
# T7 sequence (whole entry): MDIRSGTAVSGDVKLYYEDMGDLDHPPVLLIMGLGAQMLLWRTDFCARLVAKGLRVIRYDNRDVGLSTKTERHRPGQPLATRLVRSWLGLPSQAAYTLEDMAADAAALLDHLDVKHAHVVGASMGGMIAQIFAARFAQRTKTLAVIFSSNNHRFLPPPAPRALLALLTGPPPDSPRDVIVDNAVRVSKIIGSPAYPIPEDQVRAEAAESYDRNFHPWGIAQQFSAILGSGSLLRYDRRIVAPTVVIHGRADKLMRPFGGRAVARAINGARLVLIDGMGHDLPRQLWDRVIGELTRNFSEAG
# [11] = test system: Mycobacterium tuberculosis H37Rv; assay: Inhibition of lipase in Mycobacterium tuberculosis H37Rv expressing GFP assessed as cell growth inhibition at 4 uM by fluorescence assay
# [12] = test system: Mycobacterium tuberculosis; assay: Antitubercular activity against Mycobacterium tuberculosis H37Rv assessed as cell growth inhibition by microbroth dilution assay; type: functional
# [13] = test system: Mycobacterium tuberculosis H37Rv; assay: Ratio of MIC for inhibition of lipase in Mycobacterium tuberculosis H37Rv assessed as cell growth inhibition in absence of lalistat to MIC for inhibition of lipase in Mycobacterium tuberculosis H37Rv assessed as cell growth inhibition in presence of lalistat
# [14] = test system: Mycobacterium tuberculosis; assay: Antitubercular activity against Mycobacterium tuberculosis H37Rv; type: functional
# [15] = biological target: T4, Putative acetyl-hydrolase LipR (Mycobacterium tuberculosis (strain ATCC 25618 / H37Rv)); assay: Binding affinity to N-terminal His6-tagged Mycobacterium tuberculosis H37Rv ATCC 25618 lipase-R at 30 uM after 30 mins by RhN3 staining based fluorescence assay
compound,measurement,setting,value
O=C(Oc1nsnc1N1CCCCC1)N1CCCCC1,Activity,[1],Active
same,MIC,[2],25 to 50 µM
same,Activity,[3],Active
same,Activity,[4],Active
same,Activity,[5],Active
same,Activity,[6],Active
same,Ratio,[7],4
same,Activity,[8],Active
same,growth inhibition (GI),[9],55%
same,Activity,[10],Active
same,growth inhibition (GI),[11],Active
NNC(=O)c1ccncc1 [ISONIAZID],MIC,[12],0.04 to 1 µM
CN[C@H](CC(C)C)C(=O)N[C@H]1C(=O)N[C@@H](CC(N)=O)C(=O)N[C@H]2C(=O)N[C@H]3C(=O)N[C@H](C(=O)N[C@H](C(=O)O)c4cc(O)cc(O)c4-c4cc3ccc4O)[C@H](O)c3ccc(c(Cl)c3)Oc3cc2cc(c3O[C@@H]2O[C@H](CO)[C@@H](O)[C@H](O)[C@H]2O[C@H]2C[C@](C)(N)[C@H](O)[C@H](C)O2)Oc2ccc(cc2Cl)[C@H]1O,Ratio,[13],16
CCCCCCCCCCC[C@@H](C[C@@H]1OC(=O)[C@H]1CCCCCC)OC(=O)[C@H](CC(C)C)NC=O [ORLISTAT],MIC,[14],30 µM
CO[C@H]1/C=C/O[C@@]2(C)Oc3c(C)c(O)c4c(O)c(c(/C=N/N5CCN(C)CC5)c(O)c4c3C2=O)NC(=O)/C(C)=C\C=C\[C@H](C)[C@H](O)[C@@H](C)[C@@H](O)[C@@H](C)[C@H](OC(C)=O)[C@@H]1C [RIFAMPIN],MIC,[12],0.04 to 1 µM
C#CC1CCN(C(=O)Oc2nsnc2N2CCCCC2)CC1,Activity,[15],Active
same,growth inhibition (GI),[2],Active
